From patent publication US20130244875A1, “METHODS AND COMPOSITIONS FOR IMPROVING PLANT HEALTH” (priority 2006, published 2013)
Where “and” joins values, the source holds several entries; their conditions need not be identical. Equal values may be shown once.

Tests used:
[1] = test system: soybean plants; experiment: Ozone tolerance of soybeans; type: in vivo; settings: 0.5 lbs/A DCSA about 72 hours before, 10 hours
Experimental: Many plants are sensitive to ozone (O3), soybeans are particularly sensitive to ozone damage and show leaf flecking and chlorosis. Ozone can be produced in the atmosphere by a photochemical process in air polluted environments. Soybean production can be affected by ozone when soybeans are cultivated near urban areas or air pollution from urban areas is distributed to agricultural areas where soybeans are grown. An experiment was conducted to determine if DCSA treatment of soybean plants will provide tolerance to oxidative stress caused by ozone. Soybeans were treated with 0.5 lbs/A DCSA approximately 72 hours before exposure to ozone. Controls had no DCSA treatment. Four plants were treated with ozone in one 72 quart sterilite container with a clear plexiglass lid. Ozone was generated at 2 concentrations in the container with the plants at a low rate (2.8 ppm, parts per million) or a high rate (770 ppm) and the plants exposed for 10 hours at these concentrations. Light levels at plant height were ˜400μ Einsteins m-2 s-1, enough to insure photosynthesis. Air in the container was mixed using a small fan to insure proper exposure. Plants were removed from the treatment container and placed in a growth chamber to observe symptom development.

[2] = test system: Meloidogyne incognita; experiment: Control of cotton root knot nematode (RKN) by DCSA; type: in vivo
Experimental: DCSA was unexpectedly found to control RKN gall formation, improve plant height and reduce number of eggs produced by the nematode in cotton plants (ST474) (Table 5). Ten to fourteen days old cotton plants were treated with DCSA at the rate of 1 lb/A, 24 hrs before inoculating them with RKN eggs. […] Plant height, gall rating, and egg counts were measured 45 days after inoculation. The gall rating scale was 0-5 with 0=no visible galling and 5=heavy galling.

[3] = test system: PR-2, i.e., β-1,3-glucanase; experiment: Induction of PR2 (northern blot) in DMO soybean sprayed with dicamba or DCSA; type: in vivo; settings: two transgenic soybean lines; 0.25, 0.5 and 1 lb/Acre; 24 hrs after treatment; no induction in untreated or water only
Experimental: A 14 hour minimum photoperiod was provided with supplemental light at about 600 μE (micro-Einsteins) as needed. Trials were established in a randomized block design randomized by rate with 4 to 6 replications of each treatment.
All herbicide applications were made with the track sprayer using a Teejet® 9501E flat fan nozzle (Spraying Systems Co, Wheaton, Ill.) with air pressure set at a minimum of 24 psi (pounds per square inch), or 165 kpa (kilopascals)). The spray nozzle was kept at a height of about 16 inches above the top of plant material for spraying. The spray volume was 10 gallons per acre or 93 liters per hectare. Applications were made when plants had reached V-3 stage.
Events carrying a DMO transgene in their genome were grown and treated with dicamba (Clarity®, BASF) at 1 lb/Acre at Post-V3 stage. Leaf samples were harvested after 0, 3, 8, 24, 48, 72 hrs after treatment (HAT) and frozen for further analysis. In another experiment, DMO-containing plants were sprayed with either dicamba or DCSA at 0.25, 0.5 and 1 lb/Acre rate and tissue samples were collected 24 HAT. RNA was extracted and analyzed by northern blot analysis using PR-2, i.e., β-1,3-glucanase as a probe. PR-2 is a pathogenesis-related protein known to degrade […] and thus provide protection against fungal pathogens (U.S. Pat. No. 5,670,706 and Uknes et al., 1992).

[4] = test system: soybean plants; experiment: Drought tolerance of soybean plants; type: in vivo; settings: for Root gdwt / Leaf gdwt / Leaf gfwt / Root gfwt: variety 2 under drought stress; for Root gdwt / Leaf gdwt: dry weight; for Root gdwt: surfactant 1.16; for Leaf gdwt: surfactant 2.37; for Leaf gfwt / Root gfwt: fresh weight; for Leaf gfwt: surfactant 8.01; for Root gfwt: surfactant 12.88
Experimental: Drought tolerance is an important agronomic trait. […] Soybean seeds of two varieties (1 and 2) were planted in soil in 4.5 inch pots, 3 seeds per pot. The seeds were germinated and plants grown to the V1 or V2 growth stage. DCSA was prepared (0.36 grams/60 milliliters in 20 percent acetone with 10 percent surfactant) and the plants sprayed with the DCSA solution at a rate equal to 0.5 pounds/Acre (lb/A) or 1.0 (lb/A) at day 0 or day 3 of the experiment. Water was withheld at day 0. The plants were rated on a scale of 1-4 for drought symptoms; 1—no symptoms; 2—minor symptoms, leaf curling and wilting; 3—substantial symptoms and wilting; 4—dead. The treatments were surfactant only, 0.5 lb/A DCSA, and 1.0 lb/A DCSA. The plants were treated with a surfactant or a DCSA solution, water withheld, and drought symptoms rated 2 days after treatment (2DAT), 3 days after treatment (3DAT), and 3DAT after rehydration (water added to soil saturation and plant recovery from drought symptoms measured). Fresh leaf weight (leaf grams fresh weight, leaf gfwt), fresh root weight (root grams fresh weight, root gfwt), leaf dry weight (leaf grams dry weight, leaf gdwt), and root dry weight (root grams dry weight, root gdwt) were measured.

[5] = test system: Verticillium (isolate King); experiment: Verticillium wilt protection in cotton, isolate King; type: in vivo, Verticillium dahliae; settings: cotton ST6611, DCSA 1 lb/A, glyphosate 0.75 lb/A, 24 hours before inoculation
Excerpt: DCSA was unexpectedly found to provide protection to cotton plants against Verticillium dahliae, causal agent of cotton wilt disease (Table 6). Cotton plants of the variety ST6611, BOLLGARD 2, ROUNDUP READY FLEX, were inoculated with a moderate isolate (DPL) or a virulent isolate (King) of Verticillium by a seedling dipping method. Seedlings at the first true leaf stage were taken out from the pots, one inch of roots were cut off, seedlings were dipped in a spore slurry for one minute, and then transplanted back in the pots. These strains were isolated and provided by Dr. Terry Wheeler (Texas A&M University, TX USA). DCSA was applied at the rate of 1 lb/A and glyphosate (ROUNDUP WEATHERMAX, Monsanto Company, St. Louis, Mo.) at the rate of 0.75 lb/A 24 hours before inoculation. Protection against Verticillium was measured on a disease severity scale of 1-9:1 being healthy and 9 being dead because of disease, and also was measured as the number of plants that survived out of 10 inoculated plants.

[6] = individual cotton (ST474) plants 1-8, DCSA 1 lb/A 24 hrs before RKN eggs, 45 days after inoculation

O=C(O)c1c(Cl)ccc(Cl)c1O [DCSA, 3,6-dichloro salicylic acid]
ozone damage symptoms ([1]; high ozone rate 770 ppm, control lower leaves visibly damaged): did not show any lower leaf damage
ozone damage symptoms ([1]; low ozone rate 2.8 ppm, controls also without symptoms): no symptoms were observed
Egg Count/pot [2, 6]: 8,160 and 9,120 and 5,200 and 3,720 and 3,360 and 3,040 and 1,800 and 2,200
Plant Height (cm) [2, 6]: 25.4 cm (3×) and 22.2 cm and 17.8 cm and 14.0 cm and 15.9 cm and 12.7 cm
RKN Gall Rating (0-5) ([2]; individual plants 1-8, 0=no visible galling, 5=heavy galling, 45 days after inoculation): 0 (4×) and 2 and 1 (3×)
RKN Gall Rating (0-5), Mean ([2]; mean of 8 plants, RKN alone 2.6): 0.6
Plant Height (cm), Mean ([2]; mean of 8 plants, RKN alone 16.9): 19.8 cm
induction of PR2 at various rates [3]: induction of PR2
average drought rating ([4]; soybean Variety 1, 0.5 lb/A DCSA, 2DAT, scale 1 no symptoms - 4 dead, surfactant 2): 2.25
average drought rating ([4]; soybean Variety 1, 0.5 lb/A DCSA, 3DAT fb rehydration, scale 1-4, surfactant 3.25): 3.75
average drought rating ([4]; soybean Variety 1, 0.5 lb/A DCSA, 3DAT, scale 1-4, surfactant 3.5): 4
average drought rating ([4]; soybean Variety 1, 1.0 lb/A DCSA, 2DAT, scale 1-4, surfactant 2): 1.75
average drought rating ([4]; soybean Variety 1, 1.0 lb/A DCSA, 3DAT fb rehydration, scale 1-4, surfactant 3.25): 3.5
average drought rating ([4]; soybean Variety 1, 1.0 lb/A DCSA, 3DAT, scale 1-4, surfactant 3.5): 3.75
average drought rating ([4]; soybean Variety 2, 0.5 lb/A DCSA, 2DAT, scale 1 no symptoms - 4 dead, surfactant 1.5): 1
average drought rating ([4]; soybean Variety 2, 0.5 lb/A DCSA, 3DAT fb rehydration, scale 1-4, surfactant 3): 2.5
average drought rating ([4]; soybean Variety 2, 0.5 lb/A DCSA, 3DAT, scale 1-4, surfactant 3.5): 2.5
average drought rating ([4]; soybean Variety 2, 1.0 lb/A DCSA, 2DAT, scale 1-4, surfactant 1.5): 1.25
average drought rating ([4]; soybean Variety 2, 1.0 lb/A DCSA, 3DAT fb rehydration, scale 1-4, surfactant 3): 2.5
average drought rating ([4]; soybean Variety 2, 1.0 lb/A DCSA, 3DAT, scale 1-4, surfactant 3.5): 2.5
Root gdwt ([4]; 0.5 lb/A DCSA): 1.25 g
Leaf gdwt ([4]; 0.5 lb/A DCSA): 1.43 g
Leaf gfwt ([4]; 0.5 lb/A DCSA): 9.45 g
Root gfwt ([4]; 0.5 lb/A DCSA): 13.74 g
Root gdwt ([4]; 1.0 lb/A DCSA): 1.34 g
Leaf gdwt ([4]; 1.0 lb/A DCSA): 2.20 g
Leaf gfwt ([4]; 1.0 lb/A DCSA): 13.94 g
Root gfwt ([4]; 1.0 lb/A DCSA): 15.40 g
Severity rating (1-9) ([5]; 1 healthy, 9 dead, inoculated check 9): 2
Plant survival rating (out of 10) ([5]; inoculated check 0): 10
